# Columns and labels:
# [1] = test system: dorsal skin of atopic mice; experiment: Histopathology (H&E) of dorsal skin: thickness of epidermis and dermis; format: in vivo, Balb/C mice; conditions: for thickness of the epidermis: DNCB only 320.2±21.6 μm, sham 26.1±1.0 μm; for thickness of dermis: DNCB only 930.2±34.2 μm, sham 384.7±11.4 μm
# Description: In order to test efficacy of the sodium taurodeoxycholate (HY2191) composition on atopic dermatitis, dermatitis lesion was induced at the shaved-back of 6 weeks old male Balb/C mice. DNCB (2,4-dinitro-1-chlorobenzene, Sigma) was used as a hapten. Five mice for each group were tested. The amount of IgE in blood of mice was measured to evaluate an inhibitory effect of a medication on IgE production. To make skin lesion of atopic dermatitis, 100 μL of a DNCB solution (2.5% in acetone) was applied on the shaved-back of the mouse at day 1. One hundred μL of DNCB (1% in acetone) was applied at day 4 and 100 μL of 0.2% DNCB in acetone at day 10. From the day 7 to the day 14, 100 μL of the composition of 2.5% or 5% sodium taurodeoxycholate (HY2191) of example 1 was applied on the back of mice twice a day. Maxidex ointment (Dexamethasone, Alcon Korea) and Protopic ointment (Tacrolimus, Astellas Pharma Korea) were used for positive control groups and only a vehicle was used for a negative control group. The dorsal skin flaps of the mice were fixed in a 10% formalin solution for 24 hours and then washed with distilled water. The paraffin blocks of the fixed skins were prepared and sectioned (thickness of 7 μm). They were stained with hematoxylin and eosin (H&E) (FIG. 5A). The thickness of epidermis and the dermis of mice treated with DNCB only were 320.2±21.6 μm and 930.2±34.2 μm, respectively. […] The thickness of dermis from the group of atopic mice treated with 2.5% sodium taurodeoxycholate (HY2191), 5% sodium taurodeoxycholate (HY2191), or Protopic were 616.0±21.1 μm, 521.7±18.3 μm, and 572.6±20.2 μm, respectively.
# mast cells = experiment: Mast cells infiltrated into the dermis (toluidine blue); format: in vivo, Balb/C mice; conditions: compared with vehicle-treated group (p<0.05)
# Description: (§1) In order to test efficacy of the sodium taurodeoxycholate (HY2191) composition on atopic dermatitis, dermatitis lesion was induced at the shaved-back of 6 weeks old male Balb/C mice. DNCB (2,4-dinitro-1-chlorobenzene, Sigma) was used as a hapten.
# (§2) Five mice for each group were tested. The amount of IgE in blood of mice was measured to evaluate an inhibitory effect of a medication on IgE production. To make skin lesion of atopic dermatitis, 100 μL of a DNCB solution (2.5% in acetone) was applied on the shaved-back of the mouse at day 1. One hundred μL of DNCB (1% in acetone) was applied at day 4 and 100 μL of 0.2% DNCB in acetone at day 10.
# (§3) From the day 7 to the day 14, 100 μL of the composition of 2.5% or 5% sodium taurodeoxycholate (HY2191) of example 1 was applied on the back of mice twice a day. Maxidex ointment (Dexamethasone, Alcon Korea) and Protopic ointment (Tacrolimus, Astellas Pharma Korea) were used for positive control groups and only a vehicle was used for a negative control group.
# (§4) The number of mast cells, eosinophils, and neutrophils infiltrated into the dermis were counted after staining skins with toluidine blue, congo red, or specific esterase (Naphthol AS-D chloroacetate), respectively. […] On the other hand, the number of neutrophils critical for acute inflammation was increased in the group of atopic mice treated with Protopic.
# neutrophils = experiment: Neutrophils infiltrated into the dermis (specific esterase, Naphthol AS-D chloroacetate); format: in vivo, Balb/C mice; conditions: compared with vehicle-treated group
# Description: as §1, §2, §3, §4
# IL-2 = experiment: Serum TH1 cytokine IL-2 by ELISA in DNCB-induced atopic dermatitis mice; format: in vivo, Balb/C mice; conditions: 5% composition; far better than mice treated with Protopic or Maxidex (p<0.05)
# serum IgE = experiment: Serum IgE level by ELISA in DNCB-induced atopic dermatitis mice; format: in vivo, Balb/C mice; conditions: FIG. 3
# Description: as §1, §2, §3
# After the clinical evaluation described at Experimental Example 2, a mixture containing 0.4% of Zoletil (Virbac, Milano Italy) and 0.04% of Rompun (Bayer Korea) in normal saline was injected i.p. to anesthetize each mouse. Blood samples were collected from the heart of the mice. The serum was prepared to measure the concentration of IgE using enzyme immunoassay (Mouse IgE ELISA, BD). […]
# IFN-γ = experiment: Serum TH1 cytokine IFN-γ by ELISA in DNCB-induced atopic dermatitis mice; format: in vivo, Balb/C mice; conditions: 5% composition; far better than mice treated with Protopic or Maxidex (p<0.05)
# IL-4 = experiment: Serum TH2 cytokine IL-4 by ELISA in DNCB-induced atopic dermatitis mice; format: in vivo, Balb/C mice; conditions: 5% composition; better than mice treated with Protopic or Maxidex (p<0.05)
# [2] = test system: atopic dermatitis lesions on shaved-back of Balb/C mice; experiment: Clinical score of DNCB-induced atopic dermatitis lesions (five items, worst score 15); format: in vivo; conditions: day 15
# Description: as §1
# as §2, with “10. […]” for “10.”
# In order to evaluate the efficacy of sodium taurodeoxycholate on atopic dermatitis, atopic dermatitis was induced on shaved-back of Balb/C mice with DNCB according to experimental example 1 and clinical scores of atopic dermatitis lesions incurred on the back of animal model was evaluated on day 15. To evaluate clinical scores at day 15, (1) the frequency of scratching for 2 minutes, (2) the severity of erythema/hemorrhage, (3) edema, (4) excoriation/erosion, and (5) scaling/dryness were graded and were scored from 0 (none) to 3 (severe), making the worst score 15 for the most severe subject. The every subject in every group was evaluated by three people in a double-blind method. The mean clinical score of individual mouse was calculated.
# eosinophils = experiment: Eosinophils infiltrated into the dermis (congo red); format: in vivo, Balb/C mice; conditions: compared with vehicle-treated group (p<0.05)
# Description: as §1, §2, §3, §4
smiles,measurement,setting,value
"C[C@H](CCC(=O)NCCS(=O)(=O)O)[C@H]1CC[C@H]2[C@@H]3CC[C@@H]4C[C@H](O)CC[C@]4(C)[C@H]3C[C@H](O)[C@]12C [sodium taurodeoxycholate (HY2191), sodium taurodeoxycholate]",thickness of the epidermis,[1]; 2.5% composition,105.3±7.0 μm
same,thickness of dermis,[1]; 2.5% composition,616.0±21.1 μm
same,thickness of the epidermis,[1]; 5% composition,75.0±8.4 μm
same,thickness of dermis,[1]; 5% composition,521.7±18.3 μm
same,number of mast cells in the skin of atopic mice,mast cells,significantly decreased
same,number of neutrophils in the skin of atopic mice,neutrophils,significantly decreased
same,level of IL-2 (TH1 cytokine) in serum,IL-2,increased significantly
same,inhibiting serum IgE production,serum IgE; 2.5% or 5% composition,effective in inhibiting serum IgE production
same,serum IgE levels,serum IgE; compared with positive control groups (Maxidex ointment or Protopic ointment),significantly lower
same,level of IFN-γ (TH1 cytokine) in serum,IFN-γ,increased significantly
same,level of IL-4 (TH2 cytokine) in serum,IL-4,decreased significantly
same,clinical scores,"[2]; 5% composition, compared to positive control group that received Maxidex ointment or Protopic ointment",better clinical scores
same,clinical score,"[2]; compared to negative control group treated with vehicle only, topical twice a day, day 7 to 14",better clinical score
same,number of eosinophils in the skin of atopic mice,eosinophils,significantly decreased

# Reference: patent publication US9855283B2, “Composition comprising GPCR19 agonist as an active ingredient for preventing or treating allergic dermatitis” (SHAPERON Inc., priority 2013, dated 2018)
